The values below come from ChEMBL document CHEMBL2177014 (J Med Chem, 2012).

Structures can show the parent of a compound that is named as a salt.

The species entered for one data set is Rattus norvegicus. Description: Displacement of [3H]MK-801 from NMDAR in Sprague-Dawley rat cerebral cortex homogenates at 10 uM after 2 hrs by liquid scintillation counting. Type of data set: tissue-based. For orientation: Displacement assays read how much labelled ligand stays bound in the presence of the test substance.
For data set [1], the target named is Glutamate receptor ionotropic, NMDA 2B (Rattus norvegicus, UniProt Q00960). Description: Displacement of [3H]Ifenprodil from NMDAR-2B in Sprague-Dawley rat frontal cortex homogenates after 2 hrs by liquid scintillation counting. Type of data set: tissue-based.
The subject of the next data set is SH-SY5Y. Description: Neuroprotective activity in human SH-SY5Y cells assessed as protection against NMDA-induced cell death after 6 hrs by MTS assay. The format is functional, cell-based. Background: Tetrazolium dyes change colour on reduction, which living cells bring about.
Another data set concerns the target T1, Acetylcholinesterase (Rattus norvegicus, UniProt P37136).
T1 sequence (P37136 whole entry): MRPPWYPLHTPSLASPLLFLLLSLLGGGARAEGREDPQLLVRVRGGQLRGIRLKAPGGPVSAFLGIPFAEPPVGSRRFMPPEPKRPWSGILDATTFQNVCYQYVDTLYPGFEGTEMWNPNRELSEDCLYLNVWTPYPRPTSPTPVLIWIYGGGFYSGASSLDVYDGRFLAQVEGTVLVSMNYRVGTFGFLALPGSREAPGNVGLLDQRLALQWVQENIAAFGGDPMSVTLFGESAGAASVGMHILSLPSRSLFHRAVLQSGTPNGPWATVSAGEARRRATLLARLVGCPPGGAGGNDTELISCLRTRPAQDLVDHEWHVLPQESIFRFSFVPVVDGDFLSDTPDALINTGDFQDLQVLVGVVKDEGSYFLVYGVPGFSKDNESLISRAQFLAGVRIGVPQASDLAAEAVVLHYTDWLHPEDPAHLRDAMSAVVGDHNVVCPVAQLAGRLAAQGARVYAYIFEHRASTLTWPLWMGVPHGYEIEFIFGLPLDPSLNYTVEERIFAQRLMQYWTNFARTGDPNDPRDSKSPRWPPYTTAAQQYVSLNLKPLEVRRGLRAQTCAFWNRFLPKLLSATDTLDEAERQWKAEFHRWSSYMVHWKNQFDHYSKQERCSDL
Description: biochemical.

Data set [2] concerns the target T2, Acetylcholinesterase (Rattus norvegicus) (UniProt P37136).
T2 sequence (whole entry): T1 sequence (P37136 whole entry)
As to the kind of experiment: Inhibition of AChE in Wistar rat brain homogenates using acetylthiocholine iodide and DTNB as substrate at 10 uM after 10 mins by Ellman method. The format is tissue-based. Background: DTNB colorimetry detects thiols as they appear.

The nature of data set [3]: Displacement of [3H]MK-801 from NMDAR in Sprague-Dawley rat cerebral cortex homogenates after 2 hrs by liquid scintillation counting. The format is tissue-based.
A short description of data set [4]: Lipophilicity, log P of the compound. Type of data set: physicochemical. As to conditions: octanol/water.
Data set [5] is described as follows: Binding affinity to NMDAR in Sprague-Dawley rat cerebral cortex homogenates. Type of data set: tissue-based.

Chain of Glutamate receptor ionotropic, NMDA 2B (Q00960 whole entry): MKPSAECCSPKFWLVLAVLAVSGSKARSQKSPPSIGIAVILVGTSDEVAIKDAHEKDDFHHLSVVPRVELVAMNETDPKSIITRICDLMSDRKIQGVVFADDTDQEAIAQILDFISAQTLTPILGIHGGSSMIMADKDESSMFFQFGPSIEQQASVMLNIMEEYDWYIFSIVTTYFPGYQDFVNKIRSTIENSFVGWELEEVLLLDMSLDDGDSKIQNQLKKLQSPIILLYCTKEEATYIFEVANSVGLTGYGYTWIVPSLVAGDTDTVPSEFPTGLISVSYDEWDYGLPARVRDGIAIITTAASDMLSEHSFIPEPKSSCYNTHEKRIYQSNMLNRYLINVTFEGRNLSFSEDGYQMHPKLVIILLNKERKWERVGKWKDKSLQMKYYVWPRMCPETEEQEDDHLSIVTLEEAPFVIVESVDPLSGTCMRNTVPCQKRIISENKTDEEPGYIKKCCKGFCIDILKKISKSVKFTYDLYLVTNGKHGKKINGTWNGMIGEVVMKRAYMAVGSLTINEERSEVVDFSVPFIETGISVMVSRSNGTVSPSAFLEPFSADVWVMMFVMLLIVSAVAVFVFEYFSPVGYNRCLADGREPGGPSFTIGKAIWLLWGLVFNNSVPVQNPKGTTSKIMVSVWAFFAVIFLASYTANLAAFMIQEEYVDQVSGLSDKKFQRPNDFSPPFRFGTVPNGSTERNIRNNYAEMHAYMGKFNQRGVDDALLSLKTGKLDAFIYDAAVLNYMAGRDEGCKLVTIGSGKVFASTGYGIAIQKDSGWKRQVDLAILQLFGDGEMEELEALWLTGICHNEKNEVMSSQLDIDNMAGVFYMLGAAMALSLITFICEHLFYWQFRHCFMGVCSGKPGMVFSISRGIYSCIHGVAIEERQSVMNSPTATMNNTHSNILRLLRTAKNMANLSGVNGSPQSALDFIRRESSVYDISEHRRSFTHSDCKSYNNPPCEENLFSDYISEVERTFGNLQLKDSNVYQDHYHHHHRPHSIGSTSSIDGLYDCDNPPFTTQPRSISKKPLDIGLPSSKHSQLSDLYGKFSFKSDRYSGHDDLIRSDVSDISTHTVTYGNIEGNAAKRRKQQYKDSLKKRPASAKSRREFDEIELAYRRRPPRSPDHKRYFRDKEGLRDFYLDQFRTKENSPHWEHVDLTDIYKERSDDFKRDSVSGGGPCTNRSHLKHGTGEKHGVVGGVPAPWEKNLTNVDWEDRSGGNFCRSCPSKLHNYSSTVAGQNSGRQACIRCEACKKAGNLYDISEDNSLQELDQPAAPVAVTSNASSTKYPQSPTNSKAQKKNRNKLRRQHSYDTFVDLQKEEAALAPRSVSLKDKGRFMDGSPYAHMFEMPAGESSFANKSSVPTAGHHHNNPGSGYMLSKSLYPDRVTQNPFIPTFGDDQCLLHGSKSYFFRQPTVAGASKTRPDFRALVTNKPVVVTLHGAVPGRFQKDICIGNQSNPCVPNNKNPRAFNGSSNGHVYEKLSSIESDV

In the case of `COc1ccc2c3c1O[C@H]1C[C@@H](O)C=C[C@@]31CCN(CCCCCC(=O)NC13CC4CC(C)(CC(C)(C4)C1)C3)C2`, the inhibition in the data set filed under Rattus norvegicus is 33.9%. The same molecule gave a Ki in data set [1] of 9760 nM. For the same molecule, the IC50 in the data set with SH-SY5Y is 0.37 nM; on Acetylcholinesterase, 11.3 nM.
Consider `CC12CC3CC(C)(C1)CC(N)(C3)C2` [MEMANTINE], for which the inhibition in data set [2] was found to be 8.5%. Besides, in the data set with SH-SY5Y, the IC50 was 718 nM. In data set [3], this molecule gave an inhibition constant Ki of 1160 nM.
With `COc1ccc2c3c1O[C@H]1C[C@@H](O)C=C[C@@]31CCN(CCCNCCCNC13CC4CC(C)(CC(C)(C4)C1)C3)C2`, the results for the Ki in data set [1] and in data set [3] were 3320 nM and 5410 nM, respectively. At Acetylcholinesterase, this molecule displayed an IC50 of 168 nM.
The matching figures for `COc1ccc2c3c1O[C@H]1C[C@@H](O)C=C[C@@]31CCN(CCCCCCCCN(C)C13CC4CC(C)(CC(C)(C4)C1)C3)C2`: more than 100000 nM, more than 10000 nM and 0.52 nM.
`COc1ccc2c3c1O[C@H]1C[C@@H](O)C=C[C@@]31CCN(CCOCCNC13CC4CC(C)(CC(C)(C4)C1)C3)C2`: the inhibition constant (Ki) is more than 100000 nM in data set [1] and more than 10000 nM in data set [3]. The same molecule gave a 50% inhibitory concentration (IC50) at Acetylcholinesterase of 3920 nM.
Take `COc1ccc2c3c1O[C@H]1C[C@@H](O)C=C[C@@]31CCN(CCCCNC13CC4CC(C)(CC(C)(C4)C1)C3)C2`: the Ki was more than 100000 nM in data set [1] and 2320 nM in data set [3]. For the same molecule, the logP in data set [4] was determined as 3.98. Moreover, the IC50 against Acetylcholinesterase came to 696 nM.
Take `COc1ccc2c3c1O[C@H]1C[C@@H](O)C=C[C@@]31CCN(CCSCCNC13CC4CC(C)(CC(C)(C4)C1)C3)C2`: the figures for the Ki in data set [1] and in data set [3] were more than 100000 nM and more than 10000 nM, respectively. Moreover, at Acetylcholinesterase, the IC50 was found to be 131 nM.
For the molecule `COc1ccc2c3c1O[C@H]1C[C@@H](O)C=C[C@@]31CCN(CCCCCCCNC13CC4CC(C)(CC(C)(C4)C1)C3)C2`, the Ki in data set [1] is 11000 nM; in data set [3] it was 10000 nM. The molecule also came in with a logP in data set [4] of 5.42. The results for the IC50 in the data set on SH-SY5Y and against Acetylcholinesterase were 0.21 nM and 1.79 nM, respectively.
As to `COc1ccc2c3c1O[C@H]1C[C@@H](O)C=C[C@@]31CCN(CCCCCCCN(C)C13CC4CC(C)(CC(C)(C4)C1)C3)C2`, the Ki in data set [1] was more than 100000 nM; in data set [3] it was more than 10000 nM. The molecule further displayed an IC50 at Acetylcholinesterase of 1.33 nM.
In the case of `COc1ccc2c3c1O[C@H]1C[C@@H](O)C=C[C@@]31CCN(CCCCCCNC13CC4CC(C)(CC(C)(C4)C1)C3)C2` [MEMAGAL], the inhibition constant Ki in data set [1] and in data set [3] was 4600 nM in each case. The molecule further displayed a logP in data set [4] of 4.94. Moreover, the figures for the IC50 with SH-SY5Y and against Acetylcholinesterase were 0.28 nM and 1.16 nM, respectively.
Regarding `COc1ccc2c3c1O[C@H]1C[C@@H](O)C=C[C@@]31CCN(CCOCCOCCNC13CC4CC(C)(CC(C)(C4)C1)C3)C2`, the Ki in data set [1] was more than 100000 nM; in data set [3], more than 10000 nM. In addition, the IC50 in the data set with SH-SY5Y is more than 10000 nM; against Acetylcholinesterase, 80.9 nM.
Consider `C[C@]12N[C@H](Cc3ccccc31)c1ccccc12` [DIZOCILPINE MALEATE], for which, in the data set with SH-SY5Y, the IC50 was 7.91 nM. Moreover, the affinity in data set [5], expressed as Kd, was 4 nM.
As to `COc1ccc2c3c1O[C@H]1C[C@@H](O)C=C[C@@]31CCN(C)C2` [GALANTAMINE], the Ki in data set [1] was more than 100000 nM; in data set [3], more than 10000 nM. The IC50 in the data set with SH-SY5Y turned out to be 747 nM.
As for `COc1ccc2c3c1O[C@H]1C[C@@H](O)C=C[C@@]31CCN(CCCC(=O)NC13CC4CC(C)(CC(C)(C4)C1)C3)C2`, the Ki is more than 100000 nM in data set [1] and more than 10000 nM in data set [3]. This molecule came in with an IC50 at Acetylcholinesterase of 55.7 nM.
Take `COc1ccc2c3c1O[C@H]1C[C@@H](O)C=C[C@@]31CCN(CCCCCNC13CC4CC(C)(CC(C)(C4)C1)C3)C2`: the results for the Ki in data set [1] and in data set [3] were 40900 nM and more than 10000 nM, respectively. The molecule further returned a logP in data set [4] of 4.46. This molecule yielded an IC50 on Acetylcholinesterase of 4.31 nM.
`CC(C(O)c1ccc(O)cc1)N1CCC(Cc2ccccc2)CC1` (configuration not stated) [IFENPRODIL] showed a Ki in data set [3] of 3080 nM.
In the case of `COc1ccc2c3c1O[C@H]1C[C@@H](O)C=C[C@@]31CCN(CCCCC(=O)NC13CC4CC(C)(CC(C)(C4)C1)C3)C2`, the Ki in data set [1] is more than 100000 nM; in data set [3], more than 10000 nM. This molecule displayed a concentration for half-maximal inhibition (IC50) against Acetylcholinesterase of 369 nM.
Consider `COc1ccc2c3c1O[C@H]1C[C@@H](O)C=C[C@@]31CCN(CCCCCCCCCNC13CC4CC(C)(CC(C)(C4)C1)C3)C2`, for which the Ki in data set [1] is more than 100000 nM; in data set [3] it was 4630 nM. In data set [4], this molecule had a logP of 6.38. At Acetylcholinesterase, this molecule showed an IC50 of 2.32 nM.
The like results for `COc1ccc2c3c1O[C@H]1C[C@@H](O)C=C[C@@]31CCN(CCCCCCCCNC13CC4CC(C)(CC(C)(C4)C1)C3)C2` were, in that order, 2900 nM, 4990 nM, 5.9 and 5.36 nM.
`COc1ccc2c3c1O[C@H]1C[C@@H](O)C=C[C@@]31CCN(CCCCCCN(C)C13CC4CC(C)(CC(C)(C4)C1)C3)C2`: the Ki was 5250 nM in data set [1] and more than 10000 nM in data set [3]. This molecule registered an IC50 against Acetylcholinesterase of 1.03 nM.

The term inhibition denotes the share of the control response that was lost under treatment. High values mean a strong effect, low ones a weak effect. One may read the Ki as a dissociation constant, usually derived from enzyme kinetics or from competition with a known ligand. A high value points to weaker binding. Usually IC50 stands for the point on the concentration scale where inhibition reaches its midpoint. A word on the logP: it is a log measure of how a compound divides between an organic and an aqueous phase. In general, Kd refers to the equilibrium constant for the complex coming apart. A lower Kd goes with tighter binding.
